# Measurements taken from US10213407B2, “Compounds and methods for inhibiting production of trimethylamine” (The Procter & Gamble Company, priority 2015, dated 2019).
# Target: Ec YeaWX lysate (Escherichia coli (strain K12), UniProt P0ABR7)
# Assay: Inhibition of formation of TMA from carnitine in Ec YeaWX lysate (d9-carnitine to d9-TMA, LC-MS/MS)
# Type: biochemical
# Details: conversion of carnitine to TMA; Ec YeaWX lysate 2.0 mg/mL protein, 250 μM NADPH, 50 μM d9-carnitine chloride, 37° C., two hours; read-out: TMA Inhibition (IC50, mol/L)
# Source text: EXAMPLE 3 provides an exemplary assay for identifying and characterizing compounds from Formula (I), or Formula (II), that inhibit the formation of TMA from carnitine.
# Escherichia coli BL21*DE3::pET30a-Ec yeaWX #1 (Ec YeaWX) strain was generated as described below. The contiguous Escherichia coli coding sequence yeaW (equivalent to uniprot ID P0ABR7.1 (YeaW) (SEQ ID NO: 2)) and yeaX (equivalent to uniprot ID P76254.1 (YeaX) (SEQ ID NO: 3)) were PCR amplified from Escherichia coli strain K-12 substr. BW25113 genomic DNA. PCR primers (YeaW_Nde I_fwd2-SEQ ID NO: 4; YeaX_rev2-SEQ ID NO: 5) were designed to create a 5′ NdeI restriction site including the ATG start codon of yeaW and create a PstI restriction site just 3′ of the yeaX TAG stop codon.
# The amplicon was restricted and cloned into the NdeI and PstI sites of the plasmid pET30a downstream of the inducible T7 promoter. A blast search of the resulting cloned amplicon DNA sequence (SEQ ID NO: 1) corresponded to nucleotide range 1884665 to 1886810 of Escherichia coli str. K-12 substr. MG1655 (NCBI Accession #NC_000913). The construct was transformed and grown in E. coli BL21(DE3) and the recombinant yeaWX overexpressed by addition of isopropyl β-D-1-thiogalactopyranoside (IPTG).
# The bacteria were grown aerobically in 50 mL LB broth (Difco #244620; 10 g/L Tryptone, 5 g/L yeast extract, 10 g/L NaCl, 50 μg/mL kanamycin), in a 500 mL Erlenmeyer flask. The cultures were inoculated from glycerol stock of BL21*DE3::pET30a-Ec yeaWX #1 strain. Strains were cultured all day at 37° C. with 250 rpm shaking. Two 300 mL Minimal M9 Medium (6 g/L Na2HPO4, 3 g/L KH2PO4, 0.5 g/L NaCl, 1 g/L NH4Cl, 0.1 mM CaCl2, 1 mM MgSO4, 0.2% Dextrose, 1 mg/L Thiamine, 50 μg/mL kanamycin), in 1 L Erlenmeyer flasks, were inoculated with 5 mL of the LB broth day culture and cultured overnight at 37° C. with 250 rpm shaking. The overnight cultures were used to inoculate twelve 1 L cultures of Minimal M9 media in 2.8 L fluted Erlenmeyer flasks to an OD 600 nm of 0.05 (typically approximately 28 mLs), which were grown at 37° C. with 250 rpm shaking until an OD600 of approximately 0.4 was reached. Expression of YeaWX was induced with 1 mM IPTG and the induced cultures were further grown overnight at 37° C. with 250 rpm shaking. The biomass was pelleted by centrifugation at 6000×g for 12 minutes at 4° C. The cell pellet was suspended in 240 mL of ice-cold 1× Phosphate Buffered Saline (Ca^2+ and Mg^2+ free). Ninety micrograms of Lysozyme (Sigma #L6876 Lot #SLBG8654V; Sigma-Aldrich Corp., St. Louis, Mo.) was added and incubated with 320 rpm shaking for 30 minutes at 4° C. Lysis was achieved via French press with a 4° C. prechilled 1″ diameter chamber at 1000 psi (high ratio; internal PSI equivalent ˜16000). The lysate was centrifuged at 6,000×g for 12 minutes at 4° C. to pellet extra debris. Glycerol was added to the centrifuged lysate supernatant at a final concentration of 15% A protein concentration of the centrifuged lysate supernatant was determined by a BCA Protein Assay Kit (Pierce #23225), typically in the 2.5 to 4.5 mg/ml range. The centrifuged Ec YeaWX lysate supernatant was aliquoted into 20 mL volumes and stored frozen at −80° C.
# Ec YeaWX lysate was diluted to 2.0 mg/mL protein with 1× Dulbecco's phosphate buffered saline (DPBS) plus 15% glycerol. Nicotinamide adenine dinucleotide phosphate (NADPH) was added to 250 μM. […]
# Ec YeaWX lysate, sequence (P0ABR7 whole entry): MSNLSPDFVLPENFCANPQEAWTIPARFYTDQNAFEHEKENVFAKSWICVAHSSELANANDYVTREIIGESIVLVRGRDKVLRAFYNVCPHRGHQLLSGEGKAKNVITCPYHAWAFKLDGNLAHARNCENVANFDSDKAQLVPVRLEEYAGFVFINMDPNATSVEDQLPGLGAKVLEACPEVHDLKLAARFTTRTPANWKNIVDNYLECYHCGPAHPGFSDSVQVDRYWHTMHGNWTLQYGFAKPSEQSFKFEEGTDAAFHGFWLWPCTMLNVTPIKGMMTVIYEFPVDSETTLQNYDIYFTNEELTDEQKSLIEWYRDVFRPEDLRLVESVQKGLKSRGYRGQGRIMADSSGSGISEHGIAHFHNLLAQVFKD
row,SMILES,IC50 [mol/L]
1,"CC[N+](CC)(CCBr)CCCN=C=S [Compound 7, N-(2-Bromoethyl)-3-isothiocyanato-N,N-diethylpropan-1-aminium triflate]",0.00017
2,CCOC(=O)C(=O)C[N+](C)(C)CCCN=C=S [Compound 6],0.0002
3,"CC[N+](C)(CC)CCCN=C=S [Compound 2, 3-Isothiocyanato-N,N-diethyl-N-methylpropanaminium iodide]",0.0002
4,"CC[N+](CC)(CC#N)CCCN=C=S [Compound 9, N-Cyanomethyl-3-isothiocyanato-N,N-diethylpropan-1-aminium bromide]",0.0006
5,"CCOC(=O)C(=O)C[N+](C)(C)CCN=C=S [Compound 5, N-(Ethoxypropyl-2,3-dione)-2-isothiocyanato-N,N-dimethylethan-1-aminium bromide]",0.00551
